From US20220388962A1 (Biohaven Therapeutics Ltd., priority 2019, published 2022) come the findings set out here.

Structures are written as SMILES.

For orientation: IC50 means the concentration at which inhibition is half-maximal.

TDP-43, sequence (Q13148 whole entry): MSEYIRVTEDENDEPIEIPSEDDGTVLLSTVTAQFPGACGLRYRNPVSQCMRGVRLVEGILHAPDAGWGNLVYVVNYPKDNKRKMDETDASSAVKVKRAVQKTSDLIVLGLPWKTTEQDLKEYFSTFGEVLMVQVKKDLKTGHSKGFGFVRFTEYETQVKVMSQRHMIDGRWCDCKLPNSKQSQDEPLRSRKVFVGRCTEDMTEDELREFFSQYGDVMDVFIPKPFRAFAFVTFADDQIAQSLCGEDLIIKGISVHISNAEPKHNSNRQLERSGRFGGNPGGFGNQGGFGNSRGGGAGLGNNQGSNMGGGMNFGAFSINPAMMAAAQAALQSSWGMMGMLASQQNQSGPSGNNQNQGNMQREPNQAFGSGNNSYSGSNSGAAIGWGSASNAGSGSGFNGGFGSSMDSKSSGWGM

The assay has as its target TDP-43 (Homo sapiens, UniProt Q13148). The experiment in a line: TDP-43-DNA alpha-screen assay (bt-TAR-32 displacement). The assay is classed as binding. Particulars: bt-TAR-32 0.125 nM, 15 ng/ml TDP-43. Summed up:
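GST-TDP-43 (15 ng/ml final) on anti-GST acceptor beads pre-incubated 30 min at 23 °C with compound (50 to 0.02 μM, half-log) in 25 mM Tris pH 7.4, 0.1% BSA, 0.1% Triton X-100. Biotinylated TAR-32 DNA (0.125 nM final) on streptavidin donor beads added, 90 min at 23 °C dark; AlphaScreen signal fitted for IC50.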
Take `NCCCNc1cc(-c2cnn(CCN3CCCC3)c2)nc2ccccc12` [Example 100]: the IC50 turned out to be 0.16 µM.

As for `COc1ccc(-c2cc(N[C@H]3CC[C@H](N)CC3)c3cc(OC)c(OC)cc3n2)cc1` [Example 101], the IC50 worked out at 0.17 µM.

With `COc1ccc(-c2cc(NC3CCN(C4CCC(N)CC4)CC3)c3ccccc3n2)cc1` (stereo not shown) [Example 102], the IC50 amounted to 0.18 µM.

In the case of `CN(C)CCCNc1cc(-c2ccc(N3CCNCC3)cc2)nc2ccc(F)cc12` [Example 103, N-(3-(dimethylamino)propyl)-6-fluoro-2-(4-(piperazin-1-yl)phenyl)quinolin-4-amine], the IC50 was 0.22 µM.

With `COc1ccc(-c2cc(NC3CCN(CCCN)CC3)c3ccccc3n2)cc1` [Example 104], the IC50 was 0.22 µM.

In the case of `COc1ccc(-c2cc(N[C@H]3CC[C@@H](N)CC3)c3cc(OC)c(OC)cc3n2)cc1` [Example 105], the IC50 worked out at 0.23 µM.

As for `CC(C)C(N)C(=O)NC(C(=O)NC(C(=O)N1CCN(c2ccc(-c3cc(NCCCN(C)C)c4ccccc4n3)cc2)CC1)C(C)C)C(C)C` (stereo not shown) [Example 106], the IC50 was found to be 0.24 µM.

As for `CN(C)CCCNc1cc(-c2cnn(C3CCN(C)CC3)c2)nc2ccccc12` [Example 107], the IC50 was 0.26 µM.

On to `COc1ccc(-c2cc(NCCCN(C)C)c3cc(OC)c(OC)cc3n2)cc1` [Example 108], for which the IC50 came out at 0.27 µM.

Consider `COc1ccc(-c2cc(NCCCN)c3cc(OC)c(OC)cc3n2)cc1` [Example 109], for which the IC50 turned out to be 0.29 µM.

With `CN(C)CCCNc1cc(-c2ccc(N3CCN(C)CC3)cc2)nc2ccccc12` [Example 110], the IC50 is 0.31 µM.

For `CC(C)C(N)C(=O)NC(C(=O)N1CCN(c2ccc(-c3cc(NCCCN(C)C)c4ccccc4n3)cc2)CC1)C(C)C` (stereo not shown) [Example 111], the concentration for half-maximal inhibition (IC50) came to 0.42 µM.

With `COc1ccc(-c2cc(N[C@H]3C[C@@H](N)C3)c3ccccc3n2)cc1` [Example 112], the IC50 worked out at 0.49 µM.

Consider `NCCCNc1cc(-c2ccc3ncccc3c2)nc2ccccc12` [Example 113], for which the half-inhibitory concentration (IC50) is 0.57 µM.

With `CN(C)CCCNc1cc(-c2ccc(N3CCN(C)C(=O)C3)cc2)nc2ccccc12` [Example 114], the IC50 came to 0.6 µM.

For the compound `NCCCNc1cc(-c2ccc3c(c2)CCO3)nc2ccccc12` [Example 116], the half-maximal inhibitory concentration (IC50) is 0.64 µM.

As for `[2H]C([2H])([2H])Oc1ccc(-c2cc(NCCCN)c3ccccc3n2)cc1` [Example 117], the IC50 was 0.76 µM.

For `CN(C)CCCNc1cc(-c2ccc3ncccc3c2)nc2ccccc12` [Example 118], the IC50 was found to be 0.8 µM.

For `NCCCNc1cc(C2=CCNCC2)nc2ccccc12` [Example 120], the IC50 is 0.87 µM.

On to `COc1ccc(-c2cc(NC3CCNCC3)c3ccccc3n2)cc1` [Example 122], for which the IC50 is 1.17 µM.

With `[2H]C([2H])([2H])Oc1ccc(-c2cc(NCCCN(C)C)c3ccccc3n2)cc1` [Example 123], the IC50 worked out at 1.21 µM.

Turning to `CN(C)CCCNc1cc(-c2ccc3occc3c2)nc2ccccc12` [Example 124], the IC50 amounted to 1.28 µM.

As to `Cn1cc(-c2cc(NCCCN)c3ccccc3n2)cn1` [Example 125], the 50% inhibitory concentration (IC50) came to 1.3 µM.

As for `CN(C)CCCNc1cc(-c2cnn(C3CC3)c2)nc2ccccc12` [Example 127], the IC50 came out at 1.51 µM.

As for `NCCCNc1cc(C2=CCCCC2)nc2ccccc12` [Example 128], the IC50 amounted to 1.57 µM.

For `COc1ccc(-c2cc(NCCCN(C)C(=O)[C@H](C)N)c3ccccc3n2)cc1` [Example 129], the IC50 was 1.66 µM.

In the case of `[2H]C([2H])([2H])N(CCCNc1cc(-c2ccc(OC)cc2)nc2ccccc12)C([2H])([2H])[2H]` [Example 130], the IC50 was 1.78 µM.

As for `NCCCNc1cc(-c2ccco2)nc2ccccc12` [Example 131], the IC50 is 2.55 µM.

In the case of `COc1ccc(-c2cc(NCCCN(C)C)c3ccccc3n2)cc1` [Example 132], the IC50 turned out to be 2.72 µM.

`COc1ccc(-c2cc(NCCCN(C)C)c3c(F)cccc3n2)cc1` [Example 133]: the IC50 amounted to 2.9 µM.

For `NCCCNc1cc(-c2cnn(CCN3CCOCC3)c2)nc2ccccc12` [Example 134], the IC50 was found to be 2.94 µM.
